One compound from article PMC10443802, “Targeting a xenobiotic transporter to ameliorate vincristine-induced sensory neuropathy” (JCI Insight, 2023) can be followed below.

“And” between values parts separate entries of the source, which are not always exact repeats. Identical values can stand only once.

In data set [1] the test system is mice. In words: Open field locomotion, Basso Mouse Scale (BMS). The format is in vivo. Also noted: key: BMS score: higher = better hindlimb locomotion; normal = 9. Here is the method:
where the distance between two adjacent rungs is changeable (1-5 cm). The elevated ladder tests were initiated after mice had been acclimated to their surrounding for at least 4 h. The mice were placed at one end of the ladder and encouraged to move forward by a food reward at the other end of the ladder. If a […]
counted by an electrical counter. Experiments were repeated 3 times for each mouse, and an average of the three trials was used for analysis. Open-field locomotion was assessed with the Basso Mouse Scale (BMS) rating system (7). The open field was a round table that was 20.32 cm high and 1.524 m in diameter situated in a quiet testing room with normal lighting. The mice were acclimated to the testing table for 20 min daily for a week before drug administration. Two analysts blinded to the composition of the treatment groups simultaneously scored hindlimb locomotion for 4 min per mouse using a score sheet described previously (7). Parameters of interest included paw position (rotated in, rotated out, parallel placement), trunk stability, tail position, coordination, and plantar and dorsal support. Quantification was based on a scoring system where conditional variables are given a numerical representation in each category. A higher number correlates to better hindlimb locomotor function and ‘normal’ behavior scores a 9; conversely, a lower number represents abnormal locomotion. […]
by an automated ladder test. […]
using the mean Basso Mouse Scale for Locomotion (BMS) score. There were no pronounced differences […]
statistically significant.
(also on this page, place not known: Baseline Day 1 Day 2 Day 3 0 5 10 15 20 25 Number missed steps Wild-type Baseline Day 1 Day 2 Day 3 0 5 10 BMS Wild-type ns A B OATP1B2(-/-) OATP1B2(-/-) score of behavior. ns)

In the next data set the target is rOATP1A5 (Rattus norvegicus, UniProt O88397). In words: Vincristine uptake screen, HeLa cells overexpressing rOATP1A5. The class given is in vitro ADME. Here is the method:
Relative uptake is expressed as percentage change compared with empty vector controls (n = 4–14 per group). […] Human OATP1B1 and OATP1B3 transporter–overexpressed cells were used as positive controls; empty vector controls were used as the negative control. […] Mechanical allodynia (C), thermal hyperalgesia (D), and sciatic nerve maximal action potential amplitudes (E) are expressed as percentage change relative to baseline values (n = 6–8 per group). Statistical analysis was performed using a 2-way ANOVA with Bonferroni’s post hoc test. **P < 0.01, ***P < 0.001, ****P < 0.0001, compared with baseline values. […] Data are shown as mean ± SEM. […]
transfected with transporters of interest, including hOAT1, hOAT3, hOAT4, hOATP1A2, hOATP3A1, hOATP4A1, hOATP5A1, hOATP1C1, hOATP1B1, hOATP1B3, hOATP2B1, hOCT1, hOCT2, hOCTN1, hOCTN2, hASBT, hNTCP, hNPT1, hMATE1, hOSTα/β, hPEPT1, hPEPT2, rOatp1a1, rOatp1a4, rOatp1a5, rOatp1b2, rNtcp, rAsbt, rOat1, and rOct1. Cells were transfected with expression plasmid or vector control lacking any insert using Lipofectin reagent (Invitrogen). Sixteen hours thereafter, cells were washed with transport media (OPTIMEM, Invitrogen) and treated with radiolabeled drug. […] The cellular radioactivity was quantified by liquid scintillation counting as described above. […]

In data set [2] the test system is mice. The experiment in a line: Gross motor performance, automated elevated ladder test. The class given is in vivo, mouse.

Sequence of rOATP1A5 (O88397 whole entry): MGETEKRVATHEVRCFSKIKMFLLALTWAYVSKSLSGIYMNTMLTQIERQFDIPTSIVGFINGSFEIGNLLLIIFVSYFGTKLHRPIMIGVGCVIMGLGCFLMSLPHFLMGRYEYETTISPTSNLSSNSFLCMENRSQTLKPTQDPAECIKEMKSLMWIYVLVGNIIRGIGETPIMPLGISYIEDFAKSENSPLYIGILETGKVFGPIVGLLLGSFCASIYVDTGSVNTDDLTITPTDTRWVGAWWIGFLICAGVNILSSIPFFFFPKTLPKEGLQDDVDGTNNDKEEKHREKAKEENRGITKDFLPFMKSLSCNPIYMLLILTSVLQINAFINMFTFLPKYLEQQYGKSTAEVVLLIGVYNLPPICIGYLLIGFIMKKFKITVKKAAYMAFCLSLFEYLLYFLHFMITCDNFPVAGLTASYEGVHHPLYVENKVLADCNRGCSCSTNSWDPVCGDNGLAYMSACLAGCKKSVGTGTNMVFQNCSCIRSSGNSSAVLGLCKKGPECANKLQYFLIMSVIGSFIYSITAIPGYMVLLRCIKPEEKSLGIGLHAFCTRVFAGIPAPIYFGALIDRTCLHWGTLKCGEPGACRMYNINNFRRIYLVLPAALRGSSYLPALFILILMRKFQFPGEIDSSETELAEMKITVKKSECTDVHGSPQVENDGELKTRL

As to `CC[C@]1(O)C[C@H]2CN(CCc3c([nH]c4ccccc34)[C@@](C(=O)OC)(c3cc4c(cc3OC)N(C=O)[C@H]3[C@@](O)(C(=O)OC)[C@H](OC(C)=O)[C@]5(CC)C=CCN6CC[C@]43[C@@H]65)C2)C1` [Vincristine, vincristine], the BMS score with mice [1] (OATP1B2(-/-) mice, Day 1) was 9; with mice [1] (OATP1B2(-/-) mice, Day 2), 9; with mice [1] (OATP1B2(-/-) mice, Day 3) it was 9; in the data set on mice [1] (Wild-type mice, Day 1) it was 9 and 8; in the data set with mice [1] (Wild-type mice, Day 2), 9 and 8; in the data set on mice [1] (Wild-type mice, Day 3) it was 9. The “Basso Mouse Scale for Locomotion (BMS) score, average” value with mice [1] (wild-type and OATP1B2(-/-) mice, single i.p. dose 1 mg/kg, up to 3 days) is reported as 9. Moreover, the “Vincristine uptake (% of vector control)” value at rOATP1A5 was 107.00 % of vector control and 77.00 % of vector control and 126.00 % of vector control and 95.00 % of vector control and 111.00 % of vector control and 145.00 % of vector control and 98.00 % of vector control. In addition, the “Gross motor performance (automated ladder and open field tests)” value in the data set with mice [2] (WT mice or OATP1B2-/- mice, single i.p. dose 1 mg/kg) is reported as “did not affect gross motor performance”. Besides, the “Number of missed steps” value in the data set with mice [2] (Wild-type mice, Day 2) is 7.667 and 9.667 and 8.333 and 5.667 and 8 and 10.6667 and 9.333.
